Laboratory results as given in patent US8686044B2, “Amide derivative, pest control agent containing the amide derivative, and use of the amide derivative” (Mitsui Chemicals Agro, Inc., priority 2008, dated 2014).

Experiments:
Type in all cases: in vivo
[1] = tested on: Plutella xylostella; experiment: Pesticidal test against Plutella xylostella (cabbage leaf dip); conditions: foliar, 144 h, concentration 1 ppm, 2-stage larvae, examined after 6 days, 25° C., read-out: pesticidal rate
Procedure, shortened: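 Cabbage leaf pieces dipped 30 s in test solution at a predetermined concentration, air-dried, then offered to 2nd-instar larvae, five per group in duplicate. Held at 25° C; living and dead larvae counted after 6 days.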

[2] = tested on: Helicoverpa armigera; experiment: Pesticidal test against Helicoverpa armigera (cabbage leaf disk dip); conditions: foliar, 72 h, concentration 1 ppm, 2-stage larvae, examined after 3 days, 25° C., read-out: pesticidal rate
Experimental: Pesticidal Test against Helicoverpa armigera A cabbage leaf disk was immersed for 30 seconds in a chemical solution in which a test compound had been prepared at a predetermined concentration, and air-dried. The leaf disk was put into a 6-hole plastic cup having a filter paper laid on the bottom thereof, and 2-stage larvae of Helicoverpa armigera were released with one insect being released per hole. They were left to stand in a thermostatic chamber at 25° C., and the numbers of the living pests and the dead pests were examined after 3 days. The test was carried out with five larvae per group in two replicates. Further, the above compound (A) was used as a comparative compound.

[3] = tested on: Choristoneura magnanima; experiment: Pesticidal test against Choristoneura magnanima (artificial feed dip); conditions: 144 h, 2-stage larvae, examined after 6 days, 25° C., read-out: pesticidal rate; for pest or weed control at 1 ppm: concentration 1 ppm
Experimental: (§1) Pesticidal Test against Choristoneura magnanima A thinly sliced artificial feed was immersed for 30 seconds in a chemical solution in which a test compound had been prepared at a predetermined concentration, and air-dried, and then put into a 7 cm polyethylene cup having a filter paper laid on the bottom thereof, and 2-stage larvae of Choristoneura magnanima were released. They were left to stand in a thermostatic chamber at 25° C., and the numbers of the living pests and the dead pests were examined after 6 days. The test was carried out with five larvae per group in two replicates. Further, the above compound (A) was used as a comparative compound.

[4] = tested on: Spodoptera litura; experiment: Pesticidal test against Spodoptera litura (cabbage leaf dip); conditions: foliar, 144 h, concentration 1 ppm, 2-stage larvae, examined after 6 days, 25° C., read-out: pesticidal rate
Procedure, shortened: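 Cabbage leaf pieces dipped 30 seconds in compound solution at a predetermined concentration and air-dried, then offered to second-stage larvae, five per group in two replicates. Held at 25° C. Living and dead larvae counted after 6 days.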

[5] = tested on: Adoxophyes honmai; experiment: Pesticidal test against Adoxophyes honmai (artificial feed dip); conditions: 144 h, 2-stage larvae, examined after 6 days, 25° C., read-out: pesticidal rate; for pest or weed control at 1 ppm: concentration 1 ppm; for pest or weed control at 10 ppm: concentration 10 ppm
Experimental: as §1, with “Adoxophyes honmai” for “Choristoneura magnanima”

[6] = tested on: Laodelphax striatellus; experiment: Pesticidal test against Laodelphax striatellus (rice seedling spray); conditions: 144 h, concentration 100 ppm, 3-stage larvae, examined after 6 days, 25° C., read-out: pesticidal rate
Procedure, shortened: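 Rice seedlings sprayed with 2.5 ml acetone solution of compound at a predetermined concentration, air-dried, then infested with third-stage Laodelphax striatellus larvae in capped water-containing tubes at 25 °C. Living and dead insects counted after 6 days; ten larvae per group, two replicates.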

[7] = tested on: Musca domestica; experiment: Pesticidal test against Musca domestica (petri dish dry film); conditions: 24 h, concentration 100 ppm, female adults, examined after 1 day, 25° C., read-out: pesticidal rate
Procedure, shortened: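 Dry film from 1 ml acetone solution of compound at a predetermined concentration, air-dried in a 9 cm petri dish; female adult flies released and dish capped. Held at 25° C; living and dead counted after 1 day. Five insects per group, two replicates.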

O=C(Nc1cccc(C(=O)Nc2c(Br)cc(C(F)(C(F)(F)F)C(F)(F)C(F)(F)F)cc2C(F)(F)F)c1F)c1ccc(F)cc1 (stereo not drawn) [6-1655]
≥ 70%: pest or weed control at 1 ppm [1] | pest or weed control at 1 ppm [2] | pest or weed control at 1 ppm [3] | pest or weed control at 1 ppm [4] | pest or weed control at 1 ppm [5] | pest or weed control at 100 ppm [6]

O=C(Nc1cccc(C(=O)Nc2c(Br)cc(C(F)(C(F)(F)F)C(F)(F)F)cc2C(F)(F)F)c1F)c1ccccc1 [6-1574]
≥ 70%: pest or weed control at 1 ppm [1] | pest or weed control at 1 ppm [2] | pest or weed control at 1 ppm [3] | pest or weed control at 1 ppm [4] | pest or weed control at 1 ppm [5] | pest or weed control at 100 ppm [6]

O=C(Nc1cccc(C(=O)Nc2c(I)cc(C(F)(C(F)(F)F)C(F)(F)C(F)(F)F)cc2C(F)(F)F)c1F)c1ccccc1F (stereo not drawn) [6-1809]
≥ 70%: pest or weed control at 1 ppm [1] | pest or weed control at 1 ppm [2] | pest or weed control at 1 ppm [3] | pest or weed control at 100 ppm [7] | pest or weed control at 1 ppm [4] | pest or weed control at 1 ppm [5] | pest or weed control at 100 ppm [6]

CN(C(=O)c1ccccc1)c1cccc(C(=O)Nc2c(Br)cc(C(F)(C(F)(F)F)C(F)(F)C(F)(F)F)cc2C(F)(F)F)c1F (stereo not drawn) [7-1652]
≥ 70%: pest or weed control at 1 ppm [1] | pest or weed control at 1 ppm [2] | pest or weed control at 1 ppm [3] | pest or weed control at 100 ppm [7] | pest or weed control at 1 ppm [4] | pest or weed control at 1 ppm [5] | pest or weed control at 100 ppm [6]

O=C(Nc1cccc(C(=O)Nc2c(Br)cc(C(F)(C(F)(F)F)C(F)(F)F)cc2Br)c1F)c1ccccc1 [6-1104]
≥ 70%: pest or weed control at 1 ppm [1] | pest or weed control at 1 ppm [2] | pest or weed control at 1 ppm [3] | pest or weed control at 1 ppm [4] | pest or weed control at 10 ppm [5] | pest or weed control at 100 ppm [6]

CN(C(=O)c1ccccc1F)c1cccc(C(=O)Nc2c(I)cc(C(F)(C(F)(F)F)C(F)(F)C(F)(F)F)cc2C(F)(F)F)c1F (stereo not drawn) [7-1809]
≥ 70%: pest or weed control at 1 ppm [1] | pest or weed control at 1 ppm [2] | pest or weed control at 1 ppm [3] | pest or weed control at 100 ppm [7] | pest or weed control at 1 ppm [4] | pest or weed control at 1 ppm [5] | pest or weed control at 100 ppm [6]

O=C(Nc1c(I)cc(C(F)(C(F)(F)F)C(F)(F)C(F)(F)F)cc1C(F)(F)F)c1cccc(NC(=O)c2c(F)cccc2F)c1F (stereo not drawn) [6-1830]
≥ 70%: pest or weed control at 1 ppm [1] | pest or weed control at 1 ppm [2] | pest or weed control at 1 ppm [3] | pest or weed control at 100 ppm [7] | pest or weed control at 1 ppm [4] | pest or weed control at 1 ppm [5] | pest or weed control at 100 ppm [6]

N#Cc1cccc(C(=O)Nc2cccc(C(=O)Nc3c(I)cc(C(F)(C(F)(F)F)C(F)(F)C(F)(F)F)cc3C(F)(F)F)c2F)c1 (stereo not drawn) [6-1828]
≥ 70%: pest or weed control at 1 ppm [1] | pest or weed control at 1 ppm [2] | pest or weed control at 1 ppm [3] | pest or weed control at 100 ppm [7] | pest or weed control at 1 ppm [4] | pest or weed control at 1 ppm [5] | pest or weed control at 100 ppm [6]

O=C(Nc1cccc(C(=O)Nc2c(I)cc(C(F)(C(F)(F)F)C(F)(F)F)cc2I)c1F)c1ccc(F)cc1 [6-1263]
≥ 70%: pest or weed control at 1 ppm [1] | pest or weed control at 1 ppm [2] | pest or weed control at 1 ppm [3] | pest or weed control at 1 ppm [4] | pest or weed control at 1 ppm [5] | pest or weed control at 100 ppm [6]

N#Cc1cccc(C(=O)Nc2cccc(C(=O)Nc3c(Br)cc(C(F)(C(F)(F)F)C(F)(F)C(F)(F)F)cc3C(F)(F)F)c2)c1 (stereo not drawn) [6-366]
≥ 70%: pest or weed control at 1 ppm [1] | pest or weed control at 1 ppm [2] | pest or weed control at 1 ppm [3] | pest or weed control at 100 ppm [7] | pest or weed control at 1 ppm [4] | pest or weed control at 1 ppm [5]

CN(C(=O)c1ccc(F)cc1)c1cccc(C(=O)Nc2c(I)cc(C(F)(C(F)(F)F)C(F)(F)C(F)(F)F)cc2C(F)(F)F)c1F (stereo not drawn) [7-1811]
≥ 70%: pest or weed control at 1 ppm [1] | pest or weed control at 1 ppm [2] | pest or weed control at 1 ppm [3] | pest or weed control at 100 ppm [7] | pest or weed control at 1 ppm [4] | pest or weed control at 1 ppm [5] | pest or weed control at 100 ppm [6]

CN(C(=O)c1ccc(F)nc1)c1cccc(C(=O)Nc2c(Br)cc(C(F)(C(F)(F)F)C(F)(F)F)cc2C(F)(F)F)c1F [7-1616]
≥ 70%: pest or weed control at 1 ppm [1] | pest or weed control at 1 ppm [2] | pest or weed control at 1 ppm [3] | pest or weed control at 1 ppm [4] | pest or weed control at 10 ppm [5] | pest or weed control at 100 ppm [6]

O=C(Nc1c(I)cc(C(F)(C(F)(F)F)C(F)(F)C(F)(F)F)cc1I)c1cccc(NC(=O)c2cccnc2Cl)c1 (stereo not drawn) [6-90]
≥ 70%: pest or weed control at 1 ppm [1] | pest or weed control at 1 ppm [2] | pest or weed control at 1 ppm [3] | pest or weed control at 1 ppm [4] | pest or weed control at 1 ppm [5] | pest or weed control at 100 ppm [6]

CN(C(=O)c1ccc(F)cc1)c1cccc(C(=O)Nc2c(I)cc(C(F)(C(F)(F)F)C(F)(F)F)cc2I)c1F [7-1263]
≥ 70%: pest or weed control at 1 ppm [1] | pest or weed control at 1 ppm [2] | pest or weed control at 1 ppm [3] | pest or weed control at 1 ppm [4] | pest or weed control at 10 ppm [5] | pest or weed control at 100 ppm [6]

CN(C(=O)c1cccc(C#N)c1)c1cccc(C(=O)Nc2c(Br)cc(C(F)(C(F)(F)F)C(F)(F)C(F)(F)F)cc2C(F)(F)F)c1 (stereo not drawn) [7-366]
≥ 70%: pest or weed control at 1 ppm [1] | pest or weed control at 1 ppm [2] | pest or weed control at 1 ppm [3] | pest or weed control at 100 ppm [7] | pest or weed control at 1 ppm [4] | pest or weed control at 1 ppm [5]

O=C(Nc1c(I)cc(C(F)(C(F)(F)F)C(F)(F)F)cc1C(F)(F)F)c1cccc(NC(=O)c2c(F)cccc2F)c1 [6-446]
≥ 70%: pest or weed control at 1 ppm [1] | pest or weed control at 1 ppm [2] | pest or weed control at 10 ppm ([3]; concentration 10 ppm) | pest or weed control at 1 ppm [4] | pest or weed control at 1 ppm [5] | pest or weed control at 100 ppm [6]

O=C(Nc1c(I)cc(C(F)(C(F)(F)F)C(F)(F)C(F)(F)F)cc1I)c1cccc(NC(=O)c2c(F)cccc2F)c1 (stereo not drawn) [6-80]
≥ 70%: pest or weed control at 1 ppm [1] | pest or weed control at 1 ppm [2] | pest or weed control at 1 ppm [3] | pest or weed control at 1 ppm [4] | pest or weed control at 1 ppm [5] | pest or weed control at 100 ppm [6]

CN(C(=O)c1cc(C#N)cc(C#N)c1)c1cccc(C(=O)Nc2c(Br)cc(C(F)(C(F)(F)F)C(F)(F)F)cc2C(F)(F)F)c1F [7-1605]
≥ 70%: pest or weed control at 1 ppm [1] | pest or weed control at 1 ppm [2] | pest or weed control at 1 ppm [3] | pest or weed control at 1 ppm [4] | pest or weed control at 1 ppm [5] | pest or weed control at 100 ppm [6]

O=C(Nc1c(Br)cc(C(F)(C(F)(F)F)C(F)(F)C(F)(F)F)cc1C(F)(F)F)c1cccc(NC(=O)c2c(F)cccc2F)c1F (stereo not drawn) [6-1674]
≥ 70%: pest or weed control at 1 ppm [1] | pest or weed control at 1 ppm [2] | pest or weed control at 1 ppm [3] | pest or weed control at 1 ppm [4] | pest or weed control at 1 ppm [5] | pest or weed control at 100 ppm [6]

O=C(Nc1cccc(C(=O)Nc2c(Br)cc(C(F)(C(F)(F)F)C(F)(F)C(F)(F)F)cc2C(F)(F)F)c1F)c1cccc(F)c1 (stereo not drawn) [6-1654]
≥ 70%: pest or weed control at 1 ppm [1] | pest or weed control at 1 ppm [2] | pest or weed control at 1 ppm [3] | pest or weed control at 1 ppm [4] | pest or weed control at 1 ppm [5] | pest or weed control at 100 ppm [6]

O=C(Nc1cccc(C(=O)Nc2c(Br)cc(C(F)(C(F)(F)F)C(F)(F)F)cc2C(F)(F)F)c1)c1ccc(F)cc1 [6-271]
≥ 70%: pest or weed control at 1 ppm [1] | pest or weed control at 1 ppm [2] | pest or weed control at 1 ppm [3] | pest or weed control at 1 ppm [4] | pest or weed control at 10 ppm [5] | pest or weed control at 100 ppm [6]
